Source: patent publication US20190008961A1, “COMPOUNDS AND METHODS FOR INCREASING TUMOR INFILTRATION BY IMMUNE CELLS” (THE BROAD INSTITUTE, INC., priority 2016, published 2019)

Experiments:
[1] = tested on: MSC cells; assay: RSL3 toxicity in the presence of inhibitors of arachidonic acid metabolic enzymes; type: cell-based; conditions: for effect on toxicity of RSL3: increasing amounts of RSL3, FIG. 13; for RSL3 mediated cell death in MSCs with soluble epoxide hydrolase inhibitors: FIG. 14, TPPU 20 and 80 μM, AUDA and butyl-AUDA 80 μM
Description: To investigate the role of RSL3's effects on MSC toxicity, MDA-MSC co-cultures were contacted by compounds that were known inhibitors of arachidonic acid metabolic enzymes.

[2] = tested on: MSCs and WI-38 fibroblasts; assay: viability, Cell Titer Glo, 72 hours; type: cell-based, human
Method: Viability measurements were made to determine whether RSL3 is toxic to MDA cells, MSCs or both. Viability was assessed by seeding cells into 384-well opaque-bottom plates (Corning, Corning N.Y. catalog #3570) then treating them 24 hours later with varying concentrations of RSL3 (added using the pin-transfer instrument CyBi-Well Vario, Cybio, Woburn Mass.) for an additional period of 72 hours. Viable cells remaining after the treatment were quantified using the Cell Titer Glo reagent (Promega, Madison Wis. catalog #G7570) that measures cellular ATP content.

[3] = tested on: MSC-shGPX cells; assay: Zileuton rescue of viability in GPX4 knockdown MSCs; type: cell-based; conditions: increasing Zileuton
Method: In a knockdown GPX4 experiment in MSCs, increasing amounts of Zileuton were added to MSC-shLacZ cells as a control and to MSC-shGPX cells growing in 384-well plates and their viability was measured after 5 days of growth (see FIG. 15).

[4] = microsomal stability, mouse; type: in vitro ADME
Method: (§1) Microsomal Stability. Microsomal stability was determined at 37° C. at 60 minutes in both human and mouse microsomes. Each compound was prepared in duplicate at 1 μM with 0.3 mg/mL microsomes in PBS pH 7.4 (1% DMSO). Compounds were incubated at 37° C. for 60 minutes with a 350-rpm orbital shake with time points taken at 0 minutes and 60 minutes. Samples were analyzed by UPLC-MS (Waters, Milford, Mass.) with compounds detected by SIR detection on a single quadrupole mass spectrometer.

[5] = microsomal stability, human; type: in vitro ADME
Method: as §1

[6] = plasma stability, mouse; type: in vitro ADME
Method: (§2) Plasma Stability. Plasma stability was determined at 37° C. at 5 hours in both human and mouse plasma. Each compound was prepared in duplicate at 5 μM in plasma diluted 50/50 (v/v) with PBS pH 7.4 (0.95% acetonitrile, 0.05% DMSO). Compounds were incubated at 37° C. for 5 hours with a 350-rpm orbital shake with time points taken at 0 hours and 5 hours. Samples were analyzed by UPLC-MS (Waters, Milford, Mass.) with compounds detected by SIR detection on a single quadrupole mass spectrometer.

[7] = plasma stability, human; type: in vitro ADME
Method: as §2

[8] = plasma protein binding by equilibrium dialysis, human; type: in vitro ADME; conditions: 5 μM
Method: Plasma Protein Binding. Plasma protein binding was determined by equilibrium dialysis using the Rapid Equilibrium Dialysis (RED) device (Pierce Biotechnology, Rockford, Ill.) for both human and mouse plasma. Each compound was prepared in duplicate at 5μM in plasma (0.95% acetonitrile, 0.05% DMSO) and added to one side of the membrane (200 μL) with PBS pH 7.4 added to the other side (350 μL). Compounds were incubated at 37° C. for 5 hours with a 350-rpm orbital shake. After incubation, samples were analyzed by UPLC-MS (Waters, Milford, Mass.) with compounds detected by SIR detection on a single quadrupole mass spectrometer.

With c1ccc2c(c1)SCc1c-2[nH]c2ccccc12 [PD146176] the “effect on toxicity of RSL3” value [1] was “lessened the toxicity of RSL3”.

For COc1cccc2c1C(=O)c1c(O)c3c(c(O)c1C2=O)C[C@@](O)(C(=O)CO)C[C@@H]3O[C@H]1C[C@H](N)[C@H](O)[C@H](C)O1 [doxorubicin], the “sensitivity of MSCs and fibroblasts to the drug” value ([2]; viability, FIG. 4B) was “did not show enhanced sensitivity”.

With O=C(O)CCCCCCCCCCCNC(=O)NC12CC3CC(CC(C3)C1)C2 [AUDA] the “RSL3 mediated cell death in MSCs with soluble epoxide hydrolase inhibitors” value [1] was “increase in RSL3 mediated cell death”.

For CCOC(=O)c1ccc(NC2CCCCC2)c(N)c1 [ferrostatin], the “rescue of stromal cells from death by GPX4 inhibition” value [1] was “rescued”.

In the case of COc1ccc2c(c1)c(CC(=O)O)c(C)n2C(=O)c1ccc(Cl)cc1 [Indomethacin], the “effect on toxicity of RSL3” value [1] is reported as “little impact”.

For CCCCOC(=O)CCCCCCCCCCCNC(=O)NC12C[C@H]3C[C@@H](C1)C[C@@H](C2)C3 [butyl-AUDA], the “RSL3 mediated cell death in MSCs with soluble epoxide hydrolase inhibitors” value [1] was “increase in RSL3 mediated cell death”.

For CC(c1cc2ccccc2s1)N(O)C(N)=O (stereo not shown) [Zileuton], the “rescue of stromal cells from death by GPX4 inhibition” value [1] was “rescued”, the “effect on toxicity of RSL3” value [1] was “lessened the toxicity of RSL3” and the “amount of MSC-shGPX cells that survived” value ([3]; 5 days of growth) was “increased with higher amounts of Zileuton”. For the same compound, the “viability of control MSC-shLacZ cells” value ([3]; FIG. 15) was “no effect”.

For CC(C)c1ccc2c(c1)c(SC(C)(C)C)c(CC(C)(C)C(=O)O)n2Cc1ccc(Cl)cc1 [MK886], the “effect on toxicity of RSL3” value [1] was “lessened the toxicity of RSL3”.

For CCCCS(=N)(=O)CCC(N)C(=O)O (stereo not shown) [buthionine sulfoximine, S-n-butyl homocysteine sulfoximine], the “stromal cell death, potency relative to RSL3” value [2] was “lower potencies than that of RSL3”.

With COC(=O)c1ccc([C@@H]2c3[nH]c4ccccc4c3C[C@@H](C(=O)OC)N2C(=O)CCl)cc1 [RSL3] the “Liver Microsome Stability (1 h)” value ([4]; Mouse, 1 μM, 0.3 mg/mL microsomes) was <1%, the “stability in murine liver microsomal assay, in words” value ([4]; murine) was “little stability” and the “Liver Microsome Stability (1 h)” value ([5]; Human, 1 μM, 0.3 mg/mL microsomes) was 32.7%. For the same compound, the “stability in human liver microsomal assay, in words” value ([5]; human) was “modest stability”, the “Plasma Stability (5 h)” value ([6]; Mouse, 37° C., 5 μM) was <1% and the “stability in murine plasma, in words” value ([6]; murine) was “little stability”. The “potency in inhibiting viability of stromal cells compared with MDA cancer cells or HUVEC endothelial cells” value ([2]; 72 hours treatment) was > 10 fold, the “Plasma Stability (5 h)” value ([7]; Human, 37° C., 5 μM) was 47% and the “stability in human plasma, in words” value ([7]; human) was “modest stability”. For the same compound, the “Plasma Binding Protein (5 h)” value [8] was 98.2%.

For CCC(=O)N1CCC(NC(=O)Nc2ccc(OC(F)(F)F)cc2)CC1 [TPPU], the “RSL3 mediated cell death in MSCs with soluble epoxide hydrolase inhibitors” value [1] was “increase in RSL3 mediated cell death” and the “effect on toxicity of RSL3” value [1] was “enhanced RSL3 effects”.

For COc1ccc(N(C(=O)CCl)C(C(=O)NCCc2ccccc2)c2cccs2)cc1Cl (stereo not shown) [ML162], the “stromal cell death, potency relative to RSL3” value [2] was “lower potencies than that of RSL3”.
